Experimental data reported in ChEMBL document CHEMBL6074716, “Discovery of SET domain-binding primary alkylamine-tethered degraders for the simultaneous degradation of NSD2-long and RE-IIBP isoforms” (Eur J Med Chem, 2025).
Values after ≈ are worked out from the molar mass of the structure shown. Active and inactive are the calls of the source. The calls are words filed in the database; no cut-off is given here.

Assays:
[1] = target: T1, Histone-lysine N-methyltransferase NSD2 (Homo sapiens, UniProt O96028); assay: Binding affinity to CM5 chip-immobilizes NSD2 (unknown origin) assessed as dissociation constant by SPR analysis
T1 sequence (O96028 whole entry): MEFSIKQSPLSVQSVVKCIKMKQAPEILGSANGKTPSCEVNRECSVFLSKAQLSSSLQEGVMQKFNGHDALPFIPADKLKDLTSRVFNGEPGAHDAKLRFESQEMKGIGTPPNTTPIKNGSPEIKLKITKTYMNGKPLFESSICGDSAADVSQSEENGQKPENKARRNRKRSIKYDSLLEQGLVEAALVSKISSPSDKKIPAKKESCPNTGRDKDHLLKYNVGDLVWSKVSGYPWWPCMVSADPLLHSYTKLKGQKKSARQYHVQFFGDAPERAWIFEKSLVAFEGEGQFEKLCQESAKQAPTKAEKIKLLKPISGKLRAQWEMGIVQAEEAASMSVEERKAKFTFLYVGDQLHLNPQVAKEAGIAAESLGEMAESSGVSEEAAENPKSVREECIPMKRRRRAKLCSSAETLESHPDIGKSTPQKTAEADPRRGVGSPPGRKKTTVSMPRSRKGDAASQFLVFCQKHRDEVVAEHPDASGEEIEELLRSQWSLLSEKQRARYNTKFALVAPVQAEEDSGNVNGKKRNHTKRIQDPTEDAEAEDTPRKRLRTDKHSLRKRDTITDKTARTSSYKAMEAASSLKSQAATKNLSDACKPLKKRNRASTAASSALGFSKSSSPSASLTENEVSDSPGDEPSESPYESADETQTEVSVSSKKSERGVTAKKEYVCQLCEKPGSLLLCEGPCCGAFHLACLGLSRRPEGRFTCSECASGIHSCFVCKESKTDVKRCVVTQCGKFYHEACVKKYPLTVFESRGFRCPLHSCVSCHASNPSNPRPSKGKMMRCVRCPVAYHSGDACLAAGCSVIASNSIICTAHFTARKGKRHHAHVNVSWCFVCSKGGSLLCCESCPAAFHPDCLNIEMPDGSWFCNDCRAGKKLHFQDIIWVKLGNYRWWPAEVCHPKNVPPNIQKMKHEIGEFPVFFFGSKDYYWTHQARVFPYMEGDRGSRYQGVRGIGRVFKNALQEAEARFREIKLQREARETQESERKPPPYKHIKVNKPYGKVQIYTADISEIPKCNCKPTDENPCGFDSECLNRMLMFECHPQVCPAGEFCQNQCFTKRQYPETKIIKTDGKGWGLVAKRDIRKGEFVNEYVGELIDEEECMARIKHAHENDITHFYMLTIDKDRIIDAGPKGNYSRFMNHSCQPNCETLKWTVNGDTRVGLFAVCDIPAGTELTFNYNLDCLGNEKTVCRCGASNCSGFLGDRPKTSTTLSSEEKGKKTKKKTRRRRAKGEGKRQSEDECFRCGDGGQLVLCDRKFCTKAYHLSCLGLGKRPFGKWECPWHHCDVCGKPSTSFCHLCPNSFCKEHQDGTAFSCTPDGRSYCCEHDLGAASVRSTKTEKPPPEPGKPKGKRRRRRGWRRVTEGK

KMS-11 [2] = assay: Induction of primary alkylamine-tethering degradation of NSD2 in human KMS-11 cells at 0.1 to 2 uM by Western blot analysis; format: cell-based; settings: dose 0.1-2 µM
KMS-11 [3] = assay: Induction of primary alkylamine-tethering degradation of NSD2 in human KMS-11 cells assessed as decrease in BACE2 mRNA level at 1.25 to 2.5 uM incubated for 2 days by qPCR analysis; format: cell-based; settings: dose 1.25-2.5 µM, time 2.0 day
KMS-11 [4] = assay: Induction of primary alkylamine-tethering degradation of NSD2 in human KMS-11 cells assessed as decrease in JAM2 mRNA level at 1.25 to 2.5 uM incubated for 2 days by qPCR analysis; format: cell-based; settings: dose 1.25-2.5 µM, time 2.0 day
KMS-11 [5] = assay: Induction of primary alkylamine-tethering degradation of NSD2 in human KMS-11 cells assessed as decrease in PAK1 mRNA level at 1.25 to 2.5 uM incubated for 2 days by qPCR analysis; format: cell-based; settings: dose 1.25-2.5 µM, time 2.0 day
KMS-11 [6] = assay: Induction of primary alkylamine-tethering degradation of NSD2 in human KMS-11 cells at 5 uM by Western blot analysis; format: cell-based; settings: time 6-48 hrs
[7] = target: T2, Histone-lysine N-methyltransferase NSD2 (Homo sapiens) (UniProt O96028); assay: (§1) Induction of primary alkylamine-tethering degradation of NSD2 RE-IIBP isoform in human KMS-11 cells by Western blot analysis; format: cell-based; settings: dose <= 5.0 µM
T2 sequence (whole entry): T1 sequence (O96028 whole entry)

[8] = target: T1, Histone-lysine N-methyltransferase NSD2; assay: as §1; format: cell-based
[9] = Metabolic stability in human liver microsomes assessed as hepatic clearance at 1 uM preincubated for 5 mins followed by NADPH addition measured for 5 to 60 mins by LC-MS/MS analysis; format: ADME, Microsome; settings: time 10-65 min
KMS-11 [10] = assay: Induction of primary alkylamine-tethering degradation of NSD2 in human KMS-11 cells assessed as decrease in H3K36 methylation upto 2.5 uM by Western blot analysis; format: cell-based
KMS-11 [11] = assay: Induction of primary alkylamine-tethering degradation of NSD2 Long isoform in human KMS-11 cells upto 5 uM by Western blot analysis; format: cell-based
[12] = Solubility of compound in water measured after 4 hrs by HPLC analysis; format: physicochemical
[13] = Metabolic stability in human liver microsomes assessed as hepatic extraction ratio at 1 uM preincubated for 5 mins followed by NADPH addition measured for 5 to 60 mins by LC-MS/MS analysis; format: ADME, Microsome; settings: time 10-65 min, read-out: ERH
[14] = target: T2, Histone-lysine N-methyltransferase NSD2 (Homo sapiens); assay: Induction of primary alkylamine-tethering degradation of NSD2 RE-IIBP isoform in human KMS-11 cells upto 5 uM by Western blot analysis; format: cell-based
KMS-11 [15] = assay: Induction of primary alkylamine-tethering degradation of NSD3 in human KMS-11 cells at 0.1 to 2 uM by Western blot analysis; format: cell-based; settings: dose 0.1-2 µM
KMS-11 [16] = assay: Antiproliferative activity against human KMS-11 cells assessed as inhibition of cell viability incubated for 8 to 12 days by Cell Titer Glo assay; format: functional, cell-based
KMS-11 [17] = assay: Induction of primary alkylamine-tethering degradation of NSD1 in human KMS-11 cells at 0.1 to 2 uM by Western blot analysis; format: cell-based; settings: dose 0.1-2 µM
KMS-11 [18] = assay: Induction of primary alkylamine-tethering degradation of NSD2 in human KMS-11 cells assessed as decrease in CR2 mRNA level at 1.25 to 2.5 uM incubated for 2 days by qPCR analysis; format: cell-based; settings: dose 1.25-2.5 µM, time 2.0 day
[19] = (§2) Induction of primary alkylamine-tethering degradation of NSD2 Long isoform in human KMS-11 cells by Western blot analysis; format: cell-based
KMS-11 [20] = assay: as §2; format: cell-based; settings: dose <= 5.0 µM
[21] = target: T2, Histone-lysine N-methyltransferase NSD2 (Homo sapiens); assay: Induction of primary alkylamine-tethering degradation of NSD2 RE-IIBP isoform in human KMS-11 cells at 0.1 to 2 uM by Western blot analysis; format: cell-based; settings: dose 0.1-2 µM
KMS-11 [22] = assay: Induction of primary alkylamine-tethering degradation of NSD2 Long isoform in human KMS-11 cells at 0.1 to 2 uM by Western blot analysis; format: cell-based; settings: dose 0.1-2 µM
KMS-11 [23] = assay: Induction of primary alkylamine-tethering degradation of NSD2 in human KMS-11 cells assessed as decrease in RRAS2 mRNA level at 1.25 to 2.5 uM incubated for 2 days by qPCR analysis; format: cell-based; settings: dose 1.25-2.5 µM, time 2.0 day
[24] = Antiproliferative activity against HEK293T cells assessed as inhibition of cell viability incubated for 8 to 12 days by Cell Titer Glo assay; format: toxicity, cell-based, HEK-293T; settings: human
22Rv1 = assay: Induction of primary alkylamine-tethering degradation of NSD2 in human 22Rv1 cells assessed as decrease in H3K36 methylation upto 8 uM by Western blot analysis; format: cell-based
KMS-11 [25] = assay: Induction of primary alkylamine-tethering degradation of NSD2 in human KMS-11 cells assessed as decrease in MET mRNA level at 1.25 to 2.5 uM incubated for 2 days by qPCR analysis; format: cell-based; settings: dose 1.25-2.5 µM, time 2.0 day
[26] = Metabolic stability in human liver microsomes assessed as half life at 1 uM preincubated for 5 mins followed by NADPH addition measured for 5 to 60 mins by LC-MS/MS analysis; format: ADME, Microsome; settings: time 10-65 min
KMS-11 [27] = assay: Induction of primary alkylamine-tethering degradation of NSD2 in human KMS-11 cells assessed as decrease in CA2 mRNA level at 1.25 to 2.5 uM incubated for 2 days by qPCR analysis; format: cell-based; settings: dose 1.25-2.5 µM, time 2.0 day
KMS-11 [28] = assay: Induction of primary alkylamine-tethering degradation of NSD2 in human KMS-11 cells assessed as decrease in IGF2BP2 mRNA level at 1.25 to 2.5 uM incubated for 2 days by qPCR analysis; format: cell-based; settings: dose 1.25-2.5 µM, time 2.0 day
KMS-11 [29] = assay: Induction of primary alkylamine-tethering degradation of NSD2 in human KMS-11 cells at 1 to 4 uM by Western blot analysis; format: cell-based; settings: dose 1-4 µM
[30] = target: von Hippel-Lindau disease tumor suppressor/Histone-lysine N-methyltransferase NSD2 (Homo sapiens) (UniProt O96028+P40337); assay: PROTAC activity at VHL/NSD2 in human KMS-11 cells assessed as induction of protein degradation upto 50 uM by Western blot analysis; format: cell-based
Sequence of von Hippel-Lindau disease tumor suppressor/Histone-lysine N-methyltransferase NSD2 (Homo sapiens) (P40337 whole entry, looked up, one chain of several): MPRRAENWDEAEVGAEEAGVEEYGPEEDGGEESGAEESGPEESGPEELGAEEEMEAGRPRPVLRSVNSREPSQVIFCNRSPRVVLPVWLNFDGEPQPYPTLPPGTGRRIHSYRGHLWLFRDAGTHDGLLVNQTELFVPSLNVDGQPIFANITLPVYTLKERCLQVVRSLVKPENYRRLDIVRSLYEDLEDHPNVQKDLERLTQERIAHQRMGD

NCCCCCCCCCCCNC(=O)COc1cc(-c2cc(Cn3cnc4c(N)ncnc43)c(N3CCC[C@@](N)(CC(F)F)C3)cn2)ccc1F
Kd [1]: > 100 µM | Activity (KMS-11 [2]): inactive

NCCCCCCCCCCCNC(=O)COc1cc(-c2cc(Cn3cnc4c(N)ncnc43)c(N3CCC[C@](N)(CC(F)F)C3)cn2)ccc1F
Activity (KMS-11 [3]): Active | Kd [1]: 8.77 µM | Activity (KMS-11 [4]): Active | Activity (KMS-11 [5]): Active | Activity (KMS-11 [6]): Time-dependent-effect | Activity [7]: Dose-dependent-effect | DC50 [8]: 0.8 µM | CLhep predicted at 1 µM [9]: 20.1 mL/min/kg | Activity (KMS-11 [10]): Active | Activity (KMS-11 [11]): 80% | solubility at 4 h [12]: 470 µg/mL (≈ 648 µM) | hepatic extraction ratio at 1 µM [13]: 0.973 | Activity [14]: 80% | Activity (KMS-11 [15]): inactive | IC50 (KMS-11 [16]): 0.9 µM | Activity (KMS-11 [17]): Not active; Exhibited Moderate Degradation | Activity (KMS-11 [18]): Active | DC50 [19]: 1.48 µM | Activity (KMS-11 [20]): Dose-dependent-effect | Activity [21]: Active | Activity (KMS-11 [22]): Active | Activity (KMS-11 [23]): Active | IC50 [24]: > 100 µM | Activity (KMS-11 [2]): Active | Activity (22Rv1): Active | Activity (KMS-11 [25]): Active | half-life at 1 µM [26]: 5.37 min | Activity (KMS-11 [27]): Active | Activity (KMS-11 [28]): Active

NCCCCCNC(=O)COc1cc(-c2cc(Cn3cnc4c(N)ncnc43)c(N3CCC[C@](N)(CC(F)F)C3)cn2)ccc1F
Activity (KMS-11 [29]): inactive

NCCCNC(=O)COc1cc(-c2cc(Cn3cnc4c(N)ncnc43)c(N3CCC[C@](N)(CC(F)F)C3)cn2)ccc1F
Activity (KMS-11 [29]): inactive

NCCCCCCCCCNC(=O)COc1cc(-c2cc(Cn3cnc4c(N)ncnc43)c(N3CCC[C@](N)(CC(F)F)C3)cn2)ccc1F
Activity (KMS-11 [29]): inactive

NCCCCCCNC(=O)COc1cc(-c2cc(Cn3cnc4c(N)ncnc43)c(N3CCC[C@](N)(CC(F)F)C3)cn2)ccc1F
Activity (KMS-11 [29]): inactive

Nc1ncnc2c1ncn2Cc1cc(-c2ccc(F)c(OCC(=O)NCCCCCCCCCCCNC(=O)c3ccccc3)c2)ncc1N1CCC[C@](N)(CC(F)F)C1
Activity (KMS-11 [29]): Not active; Exhibited Minimal Activity

Nc1ncnc2c1ncn2Cc1cc(-c2ccc(F)c(F)c2)ncc1N1CCC[C@](N)(CC(F)F)C1
CLhep predicted at 1 µM [9]: 18.6 mL/min/kg | solubility at 4 h [12]: 490 µg/mL (≈ 979 µM) | hepatic extraction ratio at 1 µM [13]: 0.898 | IC50 (KMS-11 [16]): 4.7 µM | IC50 [24]: 8.45 µM | half-life at 1 µM [26]: 22.3 min

NCCCCCCCCCCCNC(=O)COc1cc(-c2cc(Cn3cnc4c(N)ncnc43)c(N3CCCC(N)(CC(F)F)C3)cn2)ccc1F (racemic)
Activity (KMS-11 [29]): Active

Cc1ncsc1-c1ccc([C@H](C)NC(=O)[C@@H]2C[C@@H](O)CN2C(=O)[C@@H](NC(=O)CCCCCCCCCCCNC(=O)COc2cc(-c3cc(Cn4cnc5c(N)ncnc54)c(N4CCCC(N)(CC(F)F)C4)cn3)ccc2F)C(C)(C)C)cc1 (some centres not stated)
Activity [30]: Active

NCCCCCCCNC(=O)COc1cc(-c2cc(Cn3cnc4c(N)ncnc43)c(N3CCC[C@](N)(CC(F)F)C3)cn2)ccc1F
Activity (KMS-11 [29]): inactive

CNCCCCCCCCCCCNC(=O)COc1cc(-c2cc(Cn3cnc4c(N)ncnc43)c(N3CCC[C@](N)(CC(F)F)C3)cn2)ccc1F
Activity (KMS-11 [29]): Not active; Exhibited Minimal Activity

NCCCCCCCCCCCCNC(=O)COc1cc(-c2cc(Cn3cnc4c(N)ncnc43)c(N3CCC[C@](N)(CC(F)F)C3)cn2)ccc1F
Activity (KMS-11 [29]): inactive
